Assay [1] is described as follows: Antiproliferative activity against human 16HBE cells expressing wild type EGFR after 72 hrs by MTT assay. The conditions noted are these: 16HBE14o-.
Assay [2] concerns the target Epidermal growth factor receptor (Homo sapiens, UniProt P00533, L858R). Description: Inhibition of EGFR L858R mutant (unknown origin) using Tyr 4 peptide as substrate after 1.5 hrs by FRET based Z'-lyte assay. In kind it is protein assay.
Assay [3] concerns NCI-H1975. In words: Antiproliferative activity against human NCI-H1975 cells expressing EGFR L858R/T790M mutant after 72 hrs by MTT assay. Particulars: NCI-H1975, 72 h.
In assay [4] the test system is A549. Description: Antiproliferative activity against wild type EGFR/k-Ras dependent human A549 cells after 72 hrs by MTT assay. Particulars: A549, 72 h. (Tetrazolium dyes change colour on reduction, which living cells bring about.)
In assay [5] the test system is NCI-H1975. Description: Induction of nitric oxide production in human NCI-H1975 cells expressing EGFR L858R/T790M mutant at 100 uM after 72 hrs by Griess assay. It counts as functional, cell-based. Background: Nitrite, measured by Griess reagent, commonly stands in for NO production.
Assay [6] in a line: Antiproliferative activity against human HCC827 cells expressing EGFR E746_A750 deletion mutant after 72 hrs by MTT assay. The conditions noted are these: HCC827, 72 h.
The target in assay [7] is Epidermal growth factor receptor (Homo sapiens, UniProt P00533, L858R/T790M). In words: Inhibition of EGFR L858R/T790M mutant (unknown origin) using Tyr 4 peptide as substrate after 1.5 hrs by FRET based Z'-lyte assay. It counts as protein assay.
Assay [8] deals with A-431. Description: Antiproliferative activity against human A431 cells expressing wild type EGFR after 72 hrs by MTT assay. The conditions noted are these: A-431, 72 h.
Assay [9] deals with T1, Epidermal growth factor receptor (Homo sapiens, UniProt P00533). Description: Inhibition of wild type EGFR (unknown origin) using Tyr 4 peptide as substrate after 1.5 hrs by FRET based Z'-lyte assay.
The target in assay [10] is T1, Epidermal growth factor receptor. Description: Inhibition of EGFR phosphorylation in human NCI-H1975 cells after 6 hrs by Western blotting analysis. In kind it is cell-based.
The subject of assay [11] is 16HBE14o-. In words: Induction of nitric oxide production in human 16HBE cells expressing wild type EGFR at 100 uM after 72 hrs by Griess assay. It counts as functional, cell-based.
The target of assay [12] is T1, Epidermal growth factor receptor. Description: Inhibition of EGFR phosphorylation in human NCI-H1975 cells at 0.01 to 1 uM after 6 hrs by Western blotting analysis. It counts as cell-based. In general terms: In western blotting, separated proteins are transferred to a membrane and probed.
Assay [13] shares this target. Description: Inhibition of EGFR phosphorylation in human NCI-H1975 cells assessed as reduction of phosphorylated Akt level at 1 uM after 6 hrs by Western blotting analysis. In kind it is cell-based.
Assay [14] relates to NCI-H1975. In words: Ratio of IC50 for human NCI-H1975 cells expressing EGFR L858R/T790M mutant to IC50 for human 16HBE cells.
The subject of assay [15] is NCI-H1975. Description: Antiproliferative activity against human NCI-H1975 cells expressing EGFR L858R/T790M mutant at 1 to 20 uM after 24 hrs by MTT assay in presence of hemoglobin. It counts as functional, cell-based.
The nature of assay [16]: Ratio of IC50 for human HCC827 cells expressing EGFR E746_A750 deletion mutant to IC50 for human 16HBE cells.
The target of assay [17] is T1, Epidermal growth factor receptor. Description: Inhibition of EGFR phosphorylation in human NCI-H1975 cells assessed as reduction of phosphorylated Erk level at 1 uM after 6 hrs by Western blotting analysis. It counts as cell-based.

pIC50: −log10 of the molar value. Calls of active or inactive are those of the source. The calls are words filed in the database; no cut-off is given here.

Epidermal growth factor receptor (Homo sapiens, UniProt P00533, L858R/T790M), sequence (P00533 25-1210 T790M/L858R limits assumed): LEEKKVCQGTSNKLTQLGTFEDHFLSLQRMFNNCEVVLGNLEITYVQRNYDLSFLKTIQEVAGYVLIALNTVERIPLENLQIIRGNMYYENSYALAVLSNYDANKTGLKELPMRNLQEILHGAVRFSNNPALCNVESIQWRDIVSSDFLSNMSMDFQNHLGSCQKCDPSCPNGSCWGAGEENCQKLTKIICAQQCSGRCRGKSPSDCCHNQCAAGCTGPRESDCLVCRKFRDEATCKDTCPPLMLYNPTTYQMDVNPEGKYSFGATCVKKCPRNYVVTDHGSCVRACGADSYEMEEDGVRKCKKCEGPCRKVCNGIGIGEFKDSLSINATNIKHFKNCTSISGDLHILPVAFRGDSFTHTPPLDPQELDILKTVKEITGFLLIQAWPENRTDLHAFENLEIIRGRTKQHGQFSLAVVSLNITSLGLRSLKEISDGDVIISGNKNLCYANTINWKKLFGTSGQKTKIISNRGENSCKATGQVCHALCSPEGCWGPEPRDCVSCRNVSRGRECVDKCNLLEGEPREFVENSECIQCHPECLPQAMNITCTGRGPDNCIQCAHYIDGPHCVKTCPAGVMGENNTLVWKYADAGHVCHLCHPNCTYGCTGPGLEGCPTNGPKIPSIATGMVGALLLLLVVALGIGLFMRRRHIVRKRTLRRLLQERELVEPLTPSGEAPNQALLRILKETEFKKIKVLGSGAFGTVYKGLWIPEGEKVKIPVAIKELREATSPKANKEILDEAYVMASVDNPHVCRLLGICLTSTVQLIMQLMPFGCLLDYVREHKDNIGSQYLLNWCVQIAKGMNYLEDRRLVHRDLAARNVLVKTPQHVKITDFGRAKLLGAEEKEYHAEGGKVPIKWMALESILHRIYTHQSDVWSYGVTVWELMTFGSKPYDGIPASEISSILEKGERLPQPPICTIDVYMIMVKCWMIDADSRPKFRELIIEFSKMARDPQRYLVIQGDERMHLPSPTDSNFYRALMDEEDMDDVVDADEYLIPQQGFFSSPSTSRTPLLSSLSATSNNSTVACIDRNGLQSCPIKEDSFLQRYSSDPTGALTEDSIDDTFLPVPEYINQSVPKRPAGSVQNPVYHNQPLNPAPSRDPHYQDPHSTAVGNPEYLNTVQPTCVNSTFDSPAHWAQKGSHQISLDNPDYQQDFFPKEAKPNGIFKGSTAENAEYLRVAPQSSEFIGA
T1 sequence (P00533 whole entry): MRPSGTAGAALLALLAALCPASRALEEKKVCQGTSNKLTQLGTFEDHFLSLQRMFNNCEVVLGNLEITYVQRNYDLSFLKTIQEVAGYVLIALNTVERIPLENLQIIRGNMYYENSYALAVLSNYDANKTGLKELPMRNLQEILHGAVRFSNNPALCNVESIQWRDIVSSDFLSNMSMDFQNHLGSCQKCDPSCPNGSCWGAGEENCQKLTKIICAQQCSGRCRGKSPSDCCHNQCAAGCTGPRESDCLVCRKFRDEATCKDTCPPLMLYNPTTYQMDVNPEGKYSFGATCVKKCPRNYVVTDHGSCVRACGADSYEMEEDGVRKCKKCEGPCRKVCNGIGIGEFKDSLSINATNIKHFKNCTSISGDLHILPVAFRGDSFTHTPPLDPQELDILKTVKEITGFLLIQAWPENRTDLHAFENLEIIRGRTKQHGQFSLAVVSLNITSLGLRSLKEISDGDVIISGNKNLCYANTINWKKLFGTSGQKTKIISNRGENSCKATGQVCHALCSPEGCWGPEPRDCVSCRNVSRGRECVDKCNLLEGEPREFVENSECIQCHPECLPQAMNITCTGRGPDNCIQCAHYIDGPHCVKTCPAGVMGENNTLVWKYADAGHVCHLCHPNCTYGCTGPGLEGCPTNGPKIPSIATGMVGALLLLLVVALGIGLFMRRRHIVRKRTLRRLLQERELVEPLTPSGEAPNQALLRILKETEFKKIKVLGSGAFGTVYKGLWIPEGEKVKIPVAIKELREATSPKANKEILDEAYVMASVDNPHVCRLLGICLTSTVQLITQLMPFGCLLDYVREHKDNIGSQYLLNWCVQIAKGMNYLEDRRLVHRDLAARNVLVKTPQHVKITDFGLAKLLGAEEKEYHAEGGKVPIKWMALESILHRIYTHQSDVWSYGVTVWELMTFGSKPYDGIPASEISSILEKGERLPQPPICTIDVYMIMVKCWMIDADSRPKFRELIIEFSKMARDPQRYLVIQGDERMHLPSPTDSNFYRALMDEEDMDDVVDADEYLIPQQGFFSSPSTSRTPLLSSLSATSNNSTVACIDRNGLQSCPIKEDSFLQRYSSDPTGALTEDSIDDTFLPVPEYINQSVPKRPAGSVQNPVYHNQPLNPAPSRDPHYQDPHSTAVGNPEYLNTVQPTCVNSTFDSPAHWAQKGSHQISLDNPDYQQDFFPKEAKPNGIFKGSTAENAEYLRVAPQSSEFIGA
Epidermal growth factor receptor (Homo sapiens, UniProt P00533, L858R), sequence (P00533 25-1210 L858R limits assumed): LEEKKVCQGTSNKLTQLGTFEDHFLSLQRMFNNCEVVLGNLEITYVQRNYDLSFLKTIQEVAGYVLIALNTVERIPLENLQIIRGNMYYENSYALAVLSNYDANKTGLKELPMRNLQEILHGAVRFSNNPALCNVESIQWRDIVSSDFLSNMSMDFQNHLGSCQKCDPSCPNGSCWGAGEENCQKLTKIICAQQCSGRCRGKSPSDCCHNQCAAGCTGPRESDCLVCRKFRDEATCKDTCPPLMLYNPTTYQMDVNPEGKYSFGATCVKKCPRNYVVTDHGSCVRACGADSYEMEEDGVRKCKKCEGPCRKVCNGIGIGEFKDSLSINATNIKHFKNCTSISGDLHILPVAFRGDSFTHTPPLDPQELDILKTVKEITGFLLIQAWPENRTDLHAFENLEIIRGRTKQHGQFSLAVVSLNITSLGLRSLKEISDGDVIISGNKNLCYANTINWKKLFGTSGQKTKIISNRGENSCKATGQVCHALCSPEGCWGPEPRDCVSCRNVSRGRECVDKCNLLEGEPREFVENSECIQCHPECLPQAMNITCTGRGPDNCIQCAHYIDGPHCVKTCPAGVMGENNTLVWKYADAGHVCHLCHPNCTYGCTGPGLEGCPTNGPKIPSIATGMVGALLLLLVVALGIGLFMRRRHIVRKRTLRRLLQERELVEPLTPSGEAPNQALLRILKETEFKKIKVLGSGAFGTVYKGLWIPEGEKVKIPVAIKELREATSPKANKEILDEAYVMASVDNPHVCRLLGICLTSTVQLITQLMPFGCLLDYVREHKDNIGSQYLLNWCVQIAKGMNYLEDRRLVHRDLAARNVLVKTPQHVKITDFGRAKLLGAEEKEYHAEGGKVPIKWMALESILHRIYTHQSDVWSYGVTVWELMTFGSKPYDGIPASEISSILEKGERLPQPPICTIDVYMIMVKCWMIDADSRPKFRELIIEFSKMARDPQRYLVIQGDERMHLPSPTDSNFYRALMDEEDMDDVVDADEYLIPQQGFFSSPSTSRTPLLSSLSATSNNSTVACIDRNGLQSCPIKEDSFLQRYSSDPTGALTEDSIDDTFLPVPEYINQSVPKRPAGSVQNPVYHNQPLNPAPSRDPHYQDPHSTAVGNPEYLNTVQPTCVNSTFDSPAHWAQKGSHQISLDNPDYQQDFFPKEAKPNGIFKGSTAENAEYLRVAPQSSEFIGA

For orientation: pIC50 means the IC50 on a negative log10 scale, so that one unit is a factor of ten. Read a high pIC50 as a low IC50. For the compound `COc1cc(N2CCN(C)CC2)ccc1Nc1ncc(Cl)c(Oc2ccc(CCCOc3no[n+]([O-])c3S(=O)(=O)c3ccccc3)cc2)n1`, the negative-log IC50 (pIC50) in [1] was 5.45; in [2], less than 5.00; in [3], 6.50; in assay [4] it was 5.55; in assay [6], 5.32; in assay [7] it was 6.11. Further, the figures for the pIC50 in assay [8] and in assay [9] were 6.26 and 5.64, respectively. Besides, in assay [5], the outcome was Active.
On to `C=CC(=O)N1CCN(c2ccc(Nc3ncc(Cl)c(Oc4cccc(COc5no[n+]([O-])c5S(=O)(=O)c5ccccc5)c4)n3)c(OC)c2)CC1`, for which, in assay [10], the inhibition entry is “Dose-dependent effect”. Also, the result in assay [11], in assay [5] and in assay [15] was Active. In addition, the pIC50 in assay [1] is 5.71; in assay [2], 6.43; in assay [3], 7.26; in assay [4], 5.77; in assay [6] it was 7.66; in assay [7], 7.35. Moreover, the negative logarithm of the IC50 (pIC50) in [8] and in [9] was 6.46 each time. Also, the inhibition result in [12], in assay [13] and in assay [17] was “Active” throughout. The “Ratio IC50” value in assay [14] and in assay [16] was 35 throughout.
Turning to `COc1cc2ncnc(Nc3ccc(F)c(Cl)c3)c2cc1OCCCN1CCOCC1`, the result in [11] and in assay [5] was Active.
With `COc1cc(N2CCC(O)CC2)ccc1Nc1ncc(Cl)c(Oc2ccc(COc3no[n+]([O-])c3S(=O)(=O)c3ccccc3)cc2)n1`, the pIC50 is 5.66 in assay [1]; 5.49 in [2]; 6.83 in assay [3]; 5.37 in [4]; 7.02 in [6]; 6.60 in [7]. The values for the pIC50 in assay [8] and in [9] were 6.45 and 5.50, respectively.
`C=CC(=O)N1CCN(c2ccc(Nc3ncc(Cl)c(Oc4ccc(COc5no[n+]([O-])c5S(=O)(=O)c5ccccc5)cc4)n3)c(OC)c2)CC1`: the pIC50 in [1] was 5.47; in assay [2] it was less than 5.00; in [3], 6.81; in assay [4], 5.41; in assay [6], 5.31; in assay [7] it was 6.39. The pIC50 in assay [8] was 5.33; in [9], less than 5.00.
Take `COc1cc(N2CCC(O)CC2)ccc1Nc1ncc(Cl)c(Oc2cccc(COc3no[n+]([O-])c3S(=O)(=O)c3ccccc3)c2)n1`: the outcome in assay [11] and in [5] was Active. Moreover, the pIC50 in [1] was 5.49; in assay [2] it was 6.31; in assay [3], 7.17; in assay [4], 5.41; in [6], 7.44; in [7], 7.17. The pIC50 in assay [8] is 5.92; in assay [9] it was 6.62. Further, the “Ratio IC50” value in assay [14] and in assay [16] was 35 in each case.
Consider `COc1cc(N2CCN(C)CC2)ccc1Nc1ncc(Cl)c(Oc2ccc(CCOc3no[n+]([O-])c3S(=O)(=O)c3ccccc3)cc2)n1`, for which the pIC50 was 5.62 in assay [1]; 5.27 in assay [2]; 6.43 in [3]; 5.43 in [4]; 5.71 in assay [6]; 6.02 in assay [7]. Besides, the pIC50 in assay [8] was 6.32; in [9], 5.53. In assay [5], the outcome was Active.
Consider `COc1cc(N2CCN(C)CC2)ccc1Nc1ncc(Cl)c(Oc2ccc(COc3no[n+]([O-])c3S(=O)(=O)c3ccccc3)cc2)n1`, for which the pIC50 in assay [1] is 5.64; in [2] it was 5.82; in assay [3] it was 6.66; in assay [4], 5.44; in [6], 6.06; in [7], 6.85. Further, the figures for the pIC50 in assay [8] and in assay [9] were 5.66 and 5.96, respectively.
Regarding `C=CC(=O)Nc1cccc(Oc2nc(Nc3ccc(N4CCN(C)CC4)cc3OC)ncc2Cl)c1`, the inhibition result in [12], in assay [13] and in [17] was “Active” in each case.
`COc1cc(N2CCN(C)CC2)ccc1Nc1ncc(Cl)c(Oc2cccc(COc3no[n+]([O-])c3S(=O)(=O)c3ccccc3)c2)n1`: the pIC50 was 5.66 in assay [1]; 6.82 in assay [2]; 7.28 in assay [3]; 5.38 in [4]; 7.20 in [6]; 7.72 in assay [7]. The pIC50 in assay [8] was 5.87; in assay [9], 6.89. For the same compound, the “Ratio IC50” value in assay [14] and in [16] was 35 each time.

Source of the values: ChEMBL document CHEMBL2407010, “Nitric oxide donating anilinopyrimidines: synthesis and biological evaluation as EGFR inhibitors” (Eur J Med Chem, 2013).
